Active and inactive are the calls of the source.

This note sets out measurements from ChEMBL document CHEMBL1201862, “PubChem BioAssay data set” (2004).

The nature of assay [1]: growth suppression of PTEN-null colon cells, dose response, cell-based, HCT116 PTEN knockout (AID 1047).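 Further: HCT116 colon tumor cells with PTEN knocked out; cells exposed to compound for 60 hours before readout; potency for loss of cell viability measured by luminescence.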 The class given is functional.
The target in another assay is Beta-galactosidase (Escherichia coli, UniProt Q8VNN2). Nature of the assay: beta-galactosidase enzyme inhibitors and activators, dose response, artefact control for CCR6 antagonist project, biochemical, E. coli enzyme, set 3 (AID 504712). It is filed as functional.
Beta-galactosidase, sequence (Q8VNN2 whole entry): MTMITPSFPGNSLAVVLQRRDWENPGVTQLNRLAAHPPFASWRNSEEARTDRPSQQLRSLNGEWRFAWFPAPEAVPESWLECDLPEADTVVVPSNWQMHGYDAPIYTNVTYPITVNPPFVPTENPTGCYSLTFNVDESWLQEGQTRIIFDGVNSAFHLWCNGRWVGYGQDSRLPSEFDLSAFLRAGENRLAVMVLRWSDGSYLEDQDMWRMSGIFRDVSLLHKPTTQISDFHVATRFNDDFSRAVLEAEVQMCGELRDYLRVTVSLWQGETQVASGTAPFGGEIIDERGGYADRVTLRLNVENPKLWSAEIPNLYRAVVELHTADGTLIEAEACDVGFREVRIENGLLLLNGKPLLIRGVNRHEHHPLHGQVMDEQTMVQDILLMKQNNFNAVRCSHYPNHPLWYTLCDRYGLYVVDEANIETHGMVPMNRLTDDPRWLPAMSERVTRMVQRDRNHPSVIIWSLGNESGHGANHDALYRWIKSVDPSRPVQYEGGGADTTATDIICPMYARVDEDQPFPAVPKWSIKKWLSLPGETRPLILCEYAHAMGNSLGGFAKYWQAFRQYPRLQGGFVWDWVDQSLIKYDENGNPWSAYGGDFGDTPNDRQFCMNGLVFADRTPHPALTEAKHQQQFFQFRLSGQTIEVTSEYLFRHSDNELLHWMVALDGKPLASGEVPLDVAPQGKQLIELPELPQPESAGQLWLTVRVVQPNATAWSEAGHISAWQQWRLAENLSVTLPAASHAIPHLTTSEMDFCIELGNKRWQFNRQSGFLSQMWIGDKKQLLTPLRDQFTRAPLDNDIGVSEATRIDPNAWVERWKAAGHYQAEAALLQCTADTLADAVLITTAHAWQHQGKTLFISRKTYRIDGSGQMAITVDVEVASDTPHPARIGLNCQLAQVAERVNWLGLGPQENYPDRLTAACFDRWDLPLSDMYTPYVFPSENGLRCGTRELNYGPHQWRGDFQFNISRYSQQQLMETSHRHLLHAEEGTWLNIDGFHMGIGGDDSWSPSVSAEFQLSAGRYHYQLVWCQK
In a further assay the test system is A-375. Nature of the assay: A375 melanoma cell viability reduction, dose response, counter-screen for MITF modulator project, cherry-pick samples, set 2 (AID 540335). It is filed as functional, cell-based. The note with it: Homo sapiens. (In general: A counterscreen serves to expose hits that act by an unwanted route or on another target.)
The target of assay [2] is T1, Heat shock factor protein 1 (Mus musculus, UniProt P38532).
T1 sequence (P38532 whole entry): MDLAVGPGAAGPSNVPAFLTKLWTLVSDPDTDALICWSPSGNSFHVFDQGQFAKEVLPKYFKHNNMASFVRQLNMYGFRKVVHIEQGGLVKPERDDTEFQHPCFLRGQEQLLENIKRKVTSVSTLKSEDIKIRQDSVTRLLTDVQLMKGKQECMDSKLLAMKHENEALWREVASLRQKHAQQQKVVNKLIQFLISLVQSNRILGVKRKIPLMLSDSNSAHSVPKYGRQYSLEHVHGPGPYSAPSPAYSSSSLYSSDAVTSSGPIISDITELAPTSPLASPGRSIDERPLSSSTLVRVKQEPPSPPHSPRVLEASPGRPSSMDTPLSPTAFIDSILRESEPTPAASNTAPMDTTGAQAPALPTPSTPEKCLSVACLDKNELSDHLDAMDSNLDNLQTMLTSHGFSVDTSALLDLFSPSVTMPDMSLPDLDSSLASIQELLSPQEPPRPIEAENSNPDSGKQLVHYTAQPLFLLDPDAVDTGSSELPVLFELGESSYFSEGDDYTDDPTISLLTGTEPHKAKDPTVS
Nature of the assay: HSF1 potentiators in luciferase reporter cells, confirmation, cell-based, NIH3T3, luminescence, dose retest (AID 435004).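 Further: stress induced by proteasome inhibitor MG132 added 30 min after compound; luciferase reporter driven by HSF1 response element in NIH3T3 cells; actives raise luminescence as potentiators of the MG132 stress response.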 It is filed as functional.

Assay [3] deals with T2, Microphthalmia-associated transcription factor (Homo sapiens, UniProt O75030).
T2 sequence (O75030 whole entry): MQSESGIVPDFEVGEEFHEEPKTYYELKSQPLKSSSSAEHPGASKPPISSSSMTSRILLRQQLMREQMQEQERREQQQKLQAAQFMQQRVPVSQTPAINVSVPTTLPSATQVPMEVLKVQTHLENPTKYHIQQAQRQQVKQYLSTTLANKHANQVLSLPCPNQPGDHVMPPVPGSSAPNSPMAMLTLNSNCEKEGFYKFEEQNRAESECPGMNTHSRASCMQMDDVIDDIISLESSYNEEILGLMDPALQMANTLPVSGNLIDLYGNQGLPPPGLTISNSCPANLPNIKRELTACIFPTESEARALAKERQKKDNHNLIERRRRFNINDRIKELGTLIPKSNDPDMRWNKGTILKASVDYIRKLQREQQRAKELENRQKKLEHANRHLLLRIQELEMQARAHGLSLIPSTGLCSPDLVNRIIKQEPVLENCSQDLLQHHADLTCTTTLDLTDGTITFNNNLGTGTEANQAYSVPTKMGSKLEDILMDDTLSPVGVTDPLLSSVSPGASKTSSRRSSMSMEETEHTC
Description: TRPM1 promoter luciferase signal decrease, dose response, MITF inhibitor project, cell-based, SK-MEL-5, cherry-picked, set 3 (AID 493073).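 Further: SK-MEL-5 melanoma cells with luciferase driven by the MITF target TRPM1 promoter.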 It is filed as functional.

Assay [4] is described as follows: growth suppression of beta-catenin-knockout colon cells, dose response, cell-based, HCT116, human colon tumor (AID 1045).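 Further: HCT116 colon tumor cells with beta catenin knocked out; cells exposed to compound for 60 hours.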 It is filed as functional.
In assay [5] the target is Serine/threonine-protein phosphatase (Homo sapiens, UniProt Q9BPW0). Description: PP5 phosphatase inhibitors, dose response, biochemical, fluorescence (AID 2395).
Serine/threonine-protein phosphatase, sequence (Q9BPW0 whole entry): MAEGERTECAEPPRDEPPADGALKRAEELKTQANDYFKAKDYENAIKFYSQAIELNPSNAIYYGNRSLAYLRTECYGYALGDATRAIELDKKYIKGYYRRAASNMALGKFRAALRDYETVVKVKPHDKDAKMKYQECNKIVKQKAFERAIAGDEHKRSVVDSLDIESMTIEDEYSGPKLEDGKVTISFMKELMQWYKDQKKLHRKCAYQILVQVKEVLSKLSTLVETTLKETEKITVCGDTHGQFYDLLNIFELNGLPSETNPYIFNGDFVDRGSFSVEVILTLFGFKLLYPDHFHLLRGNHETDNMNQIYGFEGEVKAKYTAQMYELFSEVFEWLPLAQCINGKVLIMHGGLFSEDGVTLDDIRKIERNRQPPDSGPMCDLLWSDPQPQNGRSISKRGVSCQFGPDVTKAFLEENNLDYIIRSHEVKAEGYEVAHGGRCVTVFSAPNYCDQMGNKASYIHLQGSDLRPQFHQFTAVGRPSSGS
In assay [6] the target is Serine/threonine-protein phosphatase PP1-alpha catalytic subunit (Homo sapiens, UniProt P62136). Nature of the assay: PP1 phosphatase inhibitors, dose response, biochemical, fluorescence (AID 2394).
Serine/threonine-protein phosphatase PP1-alpha catalytic subunit, sequence (P62136 whole entry): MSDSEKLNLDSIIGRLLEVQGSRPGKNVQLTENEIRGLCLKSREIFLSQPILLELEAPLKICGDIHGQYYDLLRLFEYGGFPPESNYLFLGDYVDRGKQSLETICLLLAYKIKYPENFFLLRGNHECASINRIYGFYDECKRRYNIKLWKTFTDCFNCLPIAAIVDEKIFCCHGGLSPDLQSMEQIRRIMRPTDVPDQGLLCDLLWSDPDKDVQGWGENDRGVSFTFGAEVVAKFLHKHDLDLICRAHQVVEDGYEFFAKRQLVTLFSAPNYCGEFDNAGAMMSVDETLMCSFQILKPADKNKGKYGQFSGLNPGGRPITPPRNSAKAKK
In assay [7] the target is Solute carrier family 12 member 2/member 5 (Homo sapiens, UniProt P55011+Q9H2X9). Description: KCC2 and NKCC1 inhibition by rubidium flux, cell-based, NKCC1 counter-screen (AID 1734). It is filed as functional, HEK293.
The target of assay [8] is Peroxisome proliferator-activated receptor gamma/Nuclear receptor corepressor 2 (Homo sapiens, UniProt P37231+Q9Y618). Description: Counterscreen for NR2E3 inverse agonists: TR-FRET-based biochemical high throughput dose response assay to identify inverse agonists of the interaction between peroxisome proliferator-activated receptor gamma (PPARg) and nuclear receptor co-repressor 2 (NCOR2). It is filed as functional.

The target in assay [9] is Photoreceptor-specific nuclear receptor (Homo sapiens, UniProt Q9Y5X4). Nature of the assay: NR2E3 inverse agonists, dose response, biochemical, TR-FRET (AID 463256). It is filed as functional. Background: Time-resolved FRET reads energy transfer from a long-lived donor to a nearby acceptor.
Assay [10] addresses 5-hydroxytryptamine receptor 1A (Homo sapiens, UniProt P08908). It is filed as functional.
The target of assay [11] is Voltage-gated inwardly rectifying potassium channel KCNH2 (Homo sapiens, UniProt Q12809). Nature of the assay: hERG protection from proarrhythmic block, potency, dose response, cell-based, thallium flux (AID 2121). The class given is ADME. A general note: Block of hERG is tested as a sign of cardiac risk.
Voltage-gated inwardly rectifying potassium channel KCNH2, sequence (Q12809 whole entry): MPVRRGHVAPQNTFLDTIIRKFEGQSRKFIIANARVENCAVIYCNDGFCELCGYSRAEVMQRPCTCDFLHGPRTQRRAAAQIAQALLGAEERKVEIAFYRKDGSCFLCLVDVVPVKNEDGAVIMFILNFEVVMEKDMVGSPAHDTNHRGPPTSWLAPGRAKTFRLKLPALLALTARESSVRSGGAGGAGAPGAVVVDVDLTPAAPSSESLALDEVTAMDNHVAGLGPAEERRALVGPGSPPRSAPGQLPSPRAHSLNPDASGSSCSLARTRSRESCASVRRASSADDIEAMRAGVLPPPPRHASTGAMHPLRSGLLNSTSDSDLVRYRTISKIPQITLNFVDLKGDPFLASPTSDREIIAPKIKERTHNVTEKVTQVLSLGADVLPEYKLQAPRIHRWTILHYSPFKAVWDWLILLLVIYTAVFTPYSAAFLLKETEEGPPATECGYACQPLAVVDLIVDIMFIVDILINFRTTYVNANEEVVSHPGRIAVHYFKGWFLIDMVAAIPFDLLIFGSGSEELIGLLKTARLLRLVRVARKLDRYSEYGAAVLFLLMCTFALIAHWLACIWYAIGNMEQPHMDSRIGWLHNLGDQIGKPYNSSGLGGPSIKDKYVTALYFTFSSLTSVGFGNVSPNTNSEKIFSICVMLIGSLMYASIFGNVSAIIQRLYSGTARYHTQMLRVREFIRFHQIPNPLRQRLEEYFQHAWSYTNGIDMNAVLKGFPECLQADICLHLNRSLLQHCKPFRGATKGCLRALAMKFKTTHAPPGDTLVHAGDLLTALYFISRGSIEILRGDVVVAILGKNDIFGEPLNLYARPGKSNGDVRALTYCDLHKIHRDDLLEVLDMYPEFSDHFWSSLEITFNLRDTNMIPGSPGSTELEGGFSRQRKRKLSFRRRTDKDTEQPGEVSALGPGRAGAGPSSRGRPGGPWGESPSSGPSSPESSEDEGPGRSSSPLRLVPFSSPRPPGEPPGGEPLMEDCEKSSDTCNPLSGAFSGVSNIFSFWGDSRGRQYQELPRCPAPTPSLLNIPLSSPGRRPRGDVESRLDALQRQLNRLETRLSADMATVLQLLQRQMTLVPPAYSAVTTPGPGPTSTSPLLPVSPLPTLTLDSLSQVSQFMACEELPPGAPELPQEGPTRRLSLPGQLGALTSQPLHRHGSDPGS
For a further assay, the target named is NADPH oxidase 1 (Homo sapiens, UniProt Q9Y5S8). Nature of the assay: Late-stage luminescence-based cell-based dose response assay to identify inhibitors of NADPH oxidase 1 (NOX1): Synthesized analogs. It is filed as functional.
NADPH oxidase 1, sequence (Q9Y5S8 whole entry): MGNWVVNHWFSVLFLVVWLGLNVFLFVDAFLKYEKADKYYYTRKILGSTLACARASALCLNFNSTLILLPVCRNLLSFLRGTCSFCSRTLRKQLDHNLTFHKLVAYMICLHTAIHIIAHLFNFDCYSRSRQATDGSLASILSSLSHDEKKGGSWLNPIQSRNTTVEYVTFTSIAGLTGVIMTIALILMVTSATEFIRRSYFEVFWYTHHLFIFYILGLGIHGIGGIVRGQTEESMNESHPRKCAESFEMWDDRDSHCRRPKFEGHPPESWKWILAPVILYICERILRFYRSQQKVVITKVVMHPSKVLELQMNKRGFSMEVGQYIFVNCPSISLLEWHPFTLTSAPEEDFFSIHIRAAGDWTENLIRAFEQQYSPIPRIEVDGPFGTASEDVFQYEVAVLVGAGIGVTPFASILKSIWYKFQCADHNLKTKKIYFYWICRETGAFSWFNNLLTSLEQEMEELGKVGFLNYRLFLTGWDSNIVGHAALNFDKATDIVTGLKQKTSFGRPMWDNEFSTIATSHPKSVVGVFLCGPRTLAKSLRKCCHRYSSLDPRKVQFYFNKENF
Another assay addresses 14-3-3 protein gamma (Homo sapiens, UniProt P61981). Description: modulators of 14-3-3 gamma client binding – dose response (AID 711). It is filed as functional.
A short description of assay [12]: inhibitors of SNCA 5'UTR-driven reporter translation, confirmation, H4 neuroglioma cells, luminescence (AID 1988). The class given is functional, cell-based.
Assay [13] in a line: IGROV1 ovarian cancer cell cytotoxicity, dose response, PAX8 inhibitor project, plate reader, dry powder samples (AID 743043). It is filed as functional, cell-based. The settings on record: IGROV-1.
Assay [14] is described as follows: cytotoxicity in OV-90 ovarian cancer cells, dose response, PAX8 inhibitor project, cell-based, plate reader, dry powder, SA8 (AID 743149). The class given is functional.
Assay [15] can be described thus: cytotoxicity dependent on PAX8, dose response, cell-based, plate reader, dry powder (AID 743049). The class given is functional.
The next assay concerns the target Paired box protein Pax-8 (Homo sapiens, UniProt Q06710). Description: inhibitors of PAX8-driven TPO luciferase reporter, dose response, RMG-I cells, cherry-pick (AID 687027).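 Further: luciferase reporter driven by Pax8 target thyroperoxidase promoter measured by SteadyGlo luminescence.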 The class given is functional, cell-based.
Assay [16] in a line: PAX2 cell-based inhibition, dose response, selectivity assay for PAX8 inhibitor project, plate reader, dry powder samples (AID 743048).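 Further: HEK293 cells carrying a WT1 promoter luciferase reporter driven by expressed Pax2; potency is for inhibition of Pax2 driven reporter signal.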 It is filed as functional.
For assay [17], the system named is BJ. Nature of the assay: cells. It is filed as functional, cell-based. The note with it: Homo sapiens.
The nature of assay [18]: inhibitors of firefly luciferase expression or activity, dose response, H4 neuroglioma cells, luminescence (AID 1990). It is filed as functional, cell-based.
Assay [19] in a line: PAX5 activity inhibitors, dose response, selectivity assay for PAX8 inhibitor project, cell-based, plate reader, dry powder samples (AID 743047).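 Further: HEK293 cells carrying a Pax5 driven CD19 promoter luciferase reporter; potency of inhibitors that lower reporter luminescence.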 It is filed as functional.
Assay [20] deals with BJ. Nature of the assay: cytotoxicity toward Ras-transformed BJeLR fibroblasts, dose response, cell-based, alamar blue fluorescence, cherrypicked samples (AID 2631).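 Further: confirmatory dose-response assay in RAS-dependent BJ fibroblasts engineered with TERT, LT and ST, with cytotoxicity read by fluorescence.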 The settings on record: Homo sapiens. The class given is functional.
Assay [21] can be described thus: cytotoxicity in COV434 cells, dose response, cytotoxicity control for PAX8 inhibitor project, cell-based, plate reader, dry powder, SA7 (AID 743145). The class given is functional.
The nature of assay [22]: cytotoxicity in COV362 ovarian cancer cells, dose response, cytotoxicity control for PAX8 inhibitor project, cell-based, plate reader, dry powder, SA12 (AID 743144). It is filed as functional.
Assay [23] can be described thus: A2780 ovarian cancer cell cytotoxicity, dose response, cytotoxicity control, plate reader, dry powder samples (AID 743046). The class given is functional, cell-based.
The nature of assay [24]: IOSE-T80 ovarian epithelial cell cytotoxicity, dose response, cytotoxicity control for PAX8 inhibitor project, plate reader, dry powder samples (AID 743045). The class given is functional, cell-based.
The nature of assay [25]: NIH:OVCAR-3 ovarian cancer cell cytotoxicity, dose response, PAX8 inhibitor project, plate reader, dry powder samples (AID 743044). It is filed as functional, cell-based.
Assay [26] concerns BJ. Nature of the assay: cytotoxicity toward BJ-TERT fibroblasts, dose response, cell-based, RAS-independent, luminescence (AID 1933). The class given is functional. The settings on record: Homo sapiens.
Assay [27] can be described thus: cytotoxicity toward DRD oncogenic fibroblasts, dose response, cell-based, non-viral oncogenic, luminescence (AID 1934). The class given is functional. The note with it: Homo sapiens.
A short description of assay [28]: cytotoxicity in OVCAR4 cells, dose response, cytotoxicity control for PAX8 inhibitor project, cell-based, plate reader, dry powder, SA11 (AID 743150). The class given is functional. The note with it: OVCAR-4.
The nature of assay [29]: Luminescence Cell-Based Dose Response HTS to Identify Inhibitors of 5'UTR Stem-Loop Driven Prion Protein mRNA Translation in H4 Neuroglioblastoma Cells. [Related pubchem assays: 1827 (Project Summary), 1813 (Primary HTS)]. It is filed as functional.
Assay [30] relates to BJ. Description: cytotoxicity toward BJ-TERT-LT-ST fibroblasts, dose response, cell-based, RAS-independent, luminescence (AID 1935).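 Further: BJ fibroblasts immortalized with TERT plus LT and ST oncogenes.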 The class given is functional. The settings on record: Homo sapiens.
Assay [31] in a line: Luminescence-based dose response cell-based high throughput screening assay for cytotoxic compounds using the IEC-6 intestinal epithelial cell line. [Related pubchem assays: 1858 (Summary AID.), 1825 (Counterscreen.), 1907 (Confirmation screen.)]. The class given is functional.

14-3-3 protein gamma, sequence (P61981 whole entry): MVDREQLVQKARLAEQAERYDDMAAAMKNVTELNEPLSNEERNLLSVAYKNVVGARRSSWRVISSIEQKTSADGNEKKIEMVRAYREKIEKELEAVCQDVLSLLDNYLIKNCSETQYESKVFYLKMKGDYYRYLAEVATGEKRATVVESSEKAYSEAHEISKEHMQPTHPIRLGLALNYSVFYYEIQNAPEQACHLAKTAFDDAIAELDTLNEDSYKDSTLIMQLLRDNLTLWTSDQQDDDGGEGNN
5-hydroxytryptamine receptor 1A, sequence (P08908 whole entry): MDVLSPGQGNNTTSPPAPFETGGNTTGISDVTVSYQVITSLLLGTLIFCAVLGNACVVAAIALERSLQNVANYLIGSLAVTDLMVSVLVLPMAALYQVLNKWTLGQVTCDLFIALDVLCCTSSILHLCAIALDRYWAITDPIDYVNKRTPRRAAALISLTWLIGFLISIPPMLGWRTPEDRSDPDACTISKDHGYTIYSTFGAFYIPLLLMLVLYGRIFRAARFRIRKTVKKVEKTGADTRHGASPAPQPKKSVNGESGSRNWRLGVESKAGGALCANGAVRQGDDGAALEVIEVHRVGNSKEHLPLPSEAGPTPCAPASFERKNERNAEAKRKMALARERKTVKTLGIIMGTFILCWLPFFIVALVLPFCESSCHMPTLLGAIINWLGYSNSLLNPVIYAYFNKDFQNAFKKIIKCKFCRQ
Paired box protein Pax-8, sequence (Q06710 whole entry): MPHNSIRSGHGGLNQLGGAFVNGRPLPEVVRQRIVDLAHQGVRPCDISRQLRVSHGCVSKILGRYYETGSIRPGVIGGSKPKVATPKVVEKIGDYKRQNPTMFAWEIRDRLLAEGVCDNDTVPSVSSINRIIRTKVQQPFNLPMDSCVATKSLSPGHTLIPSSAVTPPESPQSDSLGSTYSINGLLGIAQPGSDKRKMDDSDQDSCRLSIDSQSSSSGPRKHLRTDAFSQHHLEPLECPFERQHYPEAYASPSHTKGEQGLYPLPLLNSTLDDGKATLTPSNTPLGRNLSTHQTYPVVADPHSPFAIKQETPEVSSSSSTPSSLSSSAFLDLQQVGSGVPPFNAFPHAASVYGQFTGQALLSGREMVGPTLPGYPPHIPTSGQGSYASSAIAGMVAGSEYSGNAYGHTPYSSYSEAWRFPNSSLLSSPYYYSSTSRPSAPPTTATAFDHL

What is called EC50 is the concentration at which the effect is half-maximal. The IC50 is the concentration that inhibits the measured activity by half. Usually AC50 stands for the concentration at which the activity in the assay is half-maximal. As for `O=C1C(Cl)=C(N2CCN(c3ccccc3[N+](=O)[O-])CC2)C(=O)c2ccccc21`, the EC50 was 5.82 µM (active) in [1], 0.734 µM (inconclusive) in assay [2] and 4.51 µM (active) in assay [4]. The IC50 was > 66.6 µM (inactive) on Beta-galactosidase, 29.5 µM (not active) in [5] and > 67 µM (not active) in [6]. Besides, the AC50 is 15.6 µM (active) in the assay with A-375 and 3.59 µM (active) in [3].

On to `O=C(CN1C(=O)NC2(CCCC2)C1=O)Nc1nc(-c2ccc(F)cc2)cs1`, for which the IC50 in [7] is 2.9 µM (active).

Take `O=C(NCc1ccccn1)c1cccn1-c1ncc(C(F)(F)F)cc1Cl`: the IC50 in assay [8] was 9.96 µM (active); in assay [9], 9.98 µM (active).

As for `CCOC(=O)C1=C(C)NC(=O)NC1c1ccc(OCC(=O)Nc2ccccc2)c(OC)c1` (stereo unspecified), in assay [10], the EC50 was > 50 µM (not active).

Take `O=C(NC(=S)NCCc1ccccc1)c1cccc(Cl)c1`: the EC50 in assay [11] was 3.5 µM (active).

For the compound `CC(=NNc1ccc(C(=O)O)cc1)c1ccc2c(c1)Nc1ccccc1S2`, the IC50 at NADPH oxidase 1 was 0.561 µM (active).

Take `Cc1ccc(-n2c(=O)[nH]cc(C(=O)Nc3ccc4c(c3)OCCO4)c2=O)cc1C`: at 14-3-3 protein gamma, the IC50 is listed as > 50 µM (not active).

For `CCN(CC)c1ccc2c(cc1=O)[C@@H](NC)CCc1cc(OC)c(OC)c(OC)c1-2`, the concentration giving a half-maximal response (EC50) in assay [12] was 0.35 µM (active); in the assay on BJ [17] it was 1.36 µM (inconclusive); in assay [18], 1.03 µM (active); in the assay with BJ [20], 0.343 µM (active); with BJ [26], 1.62 µM (active); in assay [27], 0.953 µM (active). Besides, the EC50 was 0.684 µM (active) in assay [29] and 1.07 µM (inconclusive) with BJ [30]. Further, the AC50 in assay [13] is 5.6 µM (active); in [14], 1.63 µM (active); in [15], 6.61 µM (active); at Paired box protein Pax-8 it was 2.9 µM (active); in assay [16] it was 5.95 µM (active); in assay [19] it was 2.89 µM (active). For the same compound, the concentration at half-maximal activity (AC50) is 3.45 µM (active) in assay [21]; 2.73 µM (active) in [22]; 11.7 µM (active) in assay [23]; 6.57 µM (active) in assay [24]; 7.15 µM (active) in assay [25]; 3.39 µM (active) in [28]. Further, in [31], the IC50 is 1.49 µM (active).
